Measured values reported in US8507546B2, “Use of inhibitors of scavenger receptor class proteins for the treatment of infectious diseases” (Instituto de Medicina Molecular, Faculdade de Medicina da …, priority 2006, dated 2013).

What was measured:
Plasmodium berghei ANKA = assay: Inhibition of EEF development in Huh-7 human hepatoma cells infected with sporozoites (immunofluorescence microscopy); assay type: cell-based; conditions: compound at 8 μM, 1.6 μM, 320 nM, 64 nM, 1 h before infection with 10,000 sporozoites per well
Text: To model this infection, the inventors have developed an assay monitoring infection and maturation of Plasmodium berghei ANKA, a mouse-pathogenic close relative of the human-pathogenic Plasmodium falciparum strain, in cultured human hepatoma cells. Huh human hepatoma cells, were cultivated in RPMI (Gibco/Invitrogen) medium containing 10% FBS, 1% non-essential amino acid solution (Gibco/Invitrogen), 1% penicillin/streptomycin solution (Gibco/Invitrogen), 1% glutamine (Gibco/Invitrogen) and 1% Hepes pH 8 (Gibco/Invitrogen). 4000-6000 cells per well were seeded in a volume of 100 μl/well. Sporozoites were obtained from Anopheles stephensi mosquitoes infected with P. berghei ANKA or P. yoelii. Salivary glands were dissected and collected in RPMI medium (GIBCO) on ice. Collected tissues were gently ground in the medium to release sporozoites. Tissue fragments were removed by centrifugation at 40×g for 3 min, and sporozoites were collected from the supernatant. Blt-1, Blt-2, and Blt-4 were purchased from ChemBridge Corporation (San Diego, USA). Ezetimibe (for chemical structure see FIG. 6 and structure (XXVI)) was derived from powdered Ezeterol tablets (Essex Pharma, UK). Each compound was dissolved in DMSO at a final concentration of 50 mM. 48 hours after seeding of 6000 Huh-7 cells per well, growth medium was replaced by fresh complete culture medium, containing the compounds in 4 different concentrations, generated by dilution series of the compound stock solutions in complete growth medium: 8 μM; 1.6 μM; 320 nM; 64 nM. […] Cells were imaged using a fully automated fluorescence microscope from MDC (Molecular Devices Corporation, CA, USA). […] Numerical readouts comprised of cell proliferation as measured by the number of nuclei per imaged field (Hoechst staining), cell confluency as measured by the percentage of the imaged field covered by cells (actin/Phalloidin staining), and number of EEFs per imaged field. […] Objects in a size range of 16-150 pixels were quantified. […]

P. berghei ANKA = assay: Liver infection in mice, parasite 18S RNA by Real-Time PCR; assay type: in vivo, Plasmodium berghei; conditions: C57Bl/6 mice
Description: Ezeterol tablets were used to prepare a 0.3 mg/ml solution of Ezetimibe in water. Experimental C5781/6 mice were treated by oral gavage with 200 μl of Ezetimibe solution (3 mg/kg) 2 hours prior to infection with sporozoites. To control mice, 200 μl of water were administered by oral gavage. Infection with Plasmodium berghei was performed by i.v. injection of 30 000 sporozoites (see FIG. 5). For BLT-1 treatment of C57Bl/6 mice (male, 6-8 weeks old), intra-peritoneal injections of 50 mg/kg of BLT-1 in DMSO were carried out prior to infection. Control mice were treated with DMSO only. Two hours later, mice were infected by intravenous injection with 3×10^4 P. berghei sporozoites (see FIG. 12).
Mice were sacrificed 40-42 hours after infection and their livers collected. Livers were placed in 4 ml cold lysis buffer (4 M guanidine thio-cyanate, 25 mM sodium citrate, pH 7.0 and 0.5% sarcosyl) and homogenised on ice with a tissue tearer. 1 ml aliquots of liver homogenate were kept at −80° C. until RNA extraction. Total RNA was extracted from 50 μl of liver homogenate with Qiagen's RNeasy RNA extraction kit following the instructions of the manufacturer. […]
P. berghei ANKA load and ScarB1 expression in the liver was quantified by Real-Time PCR using the SYBR Green Mix (Applied Biosystems) and primers designed for the 18S RNA of the parasite and primers for ScarB1. […]

P. berghei = assay: EEF development in mouse primary hepatocytes infected with P. berghei sporozoites; assay type: cell-based, Plasmodium berghei; conditions: 10 μM; full 24 hours of infection, first 2 hours only, or 2 hours after infection until 24 hours
Description: C57B1/6 freshly isolated mouse primary hepatocytes (1×10^5 cells per well) were seeded in 700 μl of Williams E medium supplemented with 1× glutamax (Gibco/Invitrogen), 4% fetal calf serum (Gibco/Invitrogen) and 1% penicillin/streptomycin (Gibco/Invitrogen) in 24 well plates incubated at 37° C. 5% CO2. After two days cells were treated with 10 μM BLT-1 for different time points: for the full 24 hours of infection with P. berghei (5×10^5 sporozoites), only during the first 2 hours of infection, or for the time of 2 hours after infection until evaluation at 24 hours. (see FIG. 14)

P. yoelii = P. yoelii EEF development in Hepa 1-6 cells; assay type: cell-based, Plasmodium yoelii; conditions: 10 μM; full 24 hours of infection, first 2 hours only, or 2 hours after infection until 24 hours
Description: Hepa 1-6 cells were cultured in complete DMEM medium (Gibco/Invitrogen) supplemented with 10% fetal calf serum (Gibco/Invitrogen) and 1% penicillin/streptomycin (Gibco/Invitrogen) incubated at 37° C. and 5% CO2. Sporozoites were obtained from Anopheles stephensi mosquitoes infected with P. berghei ANKA or P. yoelii. Salivary glands were dissected and collected in RPMI medium (GIBCO) on ice. Collected tissues were gently ground in the medium to release sporozoites. Tissue fragments were removed by centrifugation at 40×g for 3 min, and sporozoites were collected from the supernatant. Cells were treated with 10 μM BLT-1 for different time points: for the full 24 hours of infection with P. yoelii (1×10^5 sporozoites), only during the first 2 hours of infection, or for the time of 2 hours after infection until evaluation of infection at 24 hours (see FIG. 15).

EEF development in Mouse Primary Hepatocytes (P. berghei)	SMILES	EEF (Exo-Erythrocytic Forms) development, EEF number (Plasmodium berghei ANKA)	infection rate for liver in mice (P. berghei ANKA; 3 mg/kg oral gavage 2 hours prior to i.v. infection with 30 000 sporozoites, livers 40-42 hours after infection)	infection rate for liver in mice (P. berghei ANKA; 50 mg/kg intra-peritoneal in DMSO two hours before i.v. infection with 3×10^4 P. berghei sporozoites)	P. Yoelii EEF development in Hepa 1-6 cells (P. yoelii)
	COc1ccccc1NC(=O)Nc1ccc2ccccc2c1 [BLT-4]	Inhibition of EEF development			
	O=C1[C@H](CC[C@H](O)c2ccc(F)cc2)[C@@H](c2ccc(O)cc2)N1c1ccc(F)cc1 [Ezetimibe]	Inhibition of EEF development	reduces infection rate for liver		
Inhibition of EEF development	CCCCCCC1CCC/C1=N\NC(N)=S (stereo not shown) [BLT-1]	Inhibition of EEF (Exo-Erythrocytic Forms) development		reduces infection rate for liver	Inhibition of P. Yoelii EEF development
